# Measured values from US12545681B2, “Compound used as RET kinase inhibitor and application thereof” (TYK Medicines, Inc., priority 2020, dated 2026).
# Residue numbers refer to the chain shown, from its start. Read-outs that look alike come from different tables or passages of the source.
# Key:
# RET = conditions: cited from earlier work
# Ba/F3-KIF5B-RET = biological target: T1, Ba/F3-KIF5B-RET (Homo sapiens, UniProt P07949); assay: Cell anti-proliferation (CellTiter-Glo), Ba/F3-KIF5B-RET cells; assay type: cell-based; conditions: cell viability, 72 h incubation, CellTiter-Glo
# T1 construct: KIF5B (fusion partner, N-terminal part of kinesin-1 heavy chain, P33176); host or cells: Ba/F3 (murine pro-B cells); the other entry of the earlier key: KIF5B (P33176, Kinesin-1 heavy chain)
# T1 sequence (P07949 713-1063 limits assumed): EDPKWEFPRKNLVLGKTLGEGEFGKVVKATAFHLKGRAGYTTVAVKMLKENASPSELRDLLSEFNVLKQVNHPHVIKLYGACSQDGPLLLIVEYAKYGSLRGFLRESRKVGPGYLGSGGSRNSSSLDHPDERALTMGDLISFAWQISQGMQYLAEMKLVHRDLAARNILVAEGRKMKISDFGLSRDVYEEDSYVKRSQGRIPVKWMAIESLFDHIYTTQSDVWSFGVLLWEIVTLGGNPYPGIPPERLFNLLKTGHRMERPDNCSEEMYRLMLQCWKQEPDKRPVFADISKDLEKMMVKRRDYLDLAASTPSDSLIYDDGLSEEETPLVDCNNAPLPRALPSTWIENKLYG
# Method: (§1) Ba/F3-KIF5B-RET, Ba/F3-KIF5B-RET-V804L and Ba/F3-KIF5B-RET-V804M cells were constructed by PreceDo Pharmaceuticals Co., Ltd.
# (§2) Ba/F3-KIF5B-RET, Ba/F3-KIF5B-RET-V804L and Ba/F3-KIF5B-RET-V804M medium: RPMI-1640+10% FBS+1% P/S.
# (§3) A 1000×solution of the compound was prepared with DMSO, the compound was diluted to 20 times to obtain the final concentration with a growth medium, and 2 μl 1000×cpd was added to 98 μl growth medium.
# (§4) Cells were centrifuged and resuspended with growth medium and cell counting was performed using a cell counter. The cell suspension was diluted with growth medium to the desired concentration. 95 uL of the diluted cell suspension was taken out to a 96-well plate. 5 μL of 20×compound solution was added to the 96-well plate to a final DMSO concentration of 0.1% per well. The 96-well plate was incubated for 72 h at 37° C. with 5% CO2.
# (§5) The 96-well plate was equilibrated to room temperature before the assay, 50 μl of CellTiter-Glo® Reagent was added to each well, the cells were fully lysed by shaking for 2 minutes on a shaker, incubated for 10 minutes at room temperature, and Paradigm was used to detect and record the […] readings.
# (§6) Cell viability was analyzed using Graphpad 7.0 software according to the formula Cell viability (CV %)=(RLU compound−RLU blank)/(RLU control−RLU blank)*100%, and the corresponding IC50 data were calculated, in Table 1, the following names are used: <10.00 nM=A; 10.01-50.0 nM=B; >50 nM=C.
# Ba/F3-KIF5B-RET-V804M = biological target: T2, Ba/F3-KIF5B-RET-V804M (Homo sapiens, UniProt P07949, V804M); assay: Cell anti-proliferation (CellTiter-Glo), Ba/F3-KIF5B-RET-V804M cells; assay type: cell-based; conditions: cell viability, 72 h incubation
# T2 construct: KIF5B (fusion partner, N-terminal part of kinesin-1 heavy chain, P33176); host or cells: Ba/F3 (murine pro-B cells); the other entry of the earlier key: KIF5B (P33176, Kinesin-1 heavy chain)
# T2 sequence (P07949 713-1063 V804M limits assumed): T1 sequence (P07949 713-1063 limits assumed) with V92M
# Method: as §1, §2, §3, §4, §5, §6
# Ba/F3-KIF5B-RET-V804L = biological target: T3, Ba/F3-KIF5B-RET-V804L (Homo sapiens, UniProt P07949, V804L); assay: Cell anti-proliferation (CellTiter-Glo), Ba/F3-KIF5B-RET-V804L cells; assay type: cell-based; conditions: cell viability, 72 h incubation
# T3 construct: KIF5B (fusion partner, N-terminal part of kinesin-1 heavy chain, P33176); host or cells: Ba/F3 (murine pro-B cells); the other entry of the earlier key: KIF5B (P33176, Kinesin-1 heavy chain)
# T3 sequence (P07949 713-1063 V804L limits assumed): T1 sequence (P07949 713-1063 limits assumed) with V92L
# Method: as §1, §2, §3, §4, §5, §6
# Ba/F3-KIF5B-RET cells = assay: In vivo efficacy study, subcutaneous Ba/F3-KIF5B-RET tumor in nude mice; set-up: species or system BALB/c nude mice; conditions: 10 mg/kg P.O. BID x 3 weeks
# Method: Cell culture: Ba/F3-KIF5B-RET cell line was cultured with 1640 medium (Biological Industries)+10%/f fetal bovine serum (BI)+1% double antibody (Penicillin Streptomycin solution, Corning, USA) at 37° C. with 5% CO2. Two passages were performed for one week. When the cell saturation was 80%-90% and the number reached the required level, the cells were collected, counted and inoculated.
# Animals: BALB/c nude mice, female, 6-8 weeks of age, weighing 18-22 g. A total of 18 mice were required, provided by Beijing Vital River Laboratory Animal Technology Co., Ltd.
# Tumor inoculation: 0.2 ml (2×106) Ba/F3-KIF5B-RET cells (plus stromal gel, volume ratio 1:1) were inoculated subcutaneously on the right posterior dorsum of each mouse, and group dosing was started when the average tumor volume reached about 150-200 mm^3.
# Experimental index: Tumor volume and body weight were measured twice a week. Tumor volume was measured by vernier calipers with the formula TV=0.5 a×b2, where a is the long diameter of the tumor and b is the short diameter of the tumor.
smiles,measurement,setting,value
CO[C@]1(C(=O)N[C@@H](C)c2ccc(-n3cc(F)cn3)nc2)CC[C@H](c2nc(C)cc(Nc3cc(C)[nH]n3)n2)CC1 [BLU-667],overall remission rate (ORR),RET; patients with medullary thyroid carcinoma,40%
same,overall remission rate (ORR),RET; patients with non-small cell lung cancer,50%
same,overall remission rate (ORR),RET; tumor patients with RET fusion and mutation,45%
"CO[C@]1(C(=O)N[C@@H](C)c2ccc(-n3cc(F)cn3)nc2)CC[C@H](c2nc(Nc3cc(C)[nH]n3)c3ccn(C)c3n2)CC1 [Control Example 1, reference compound]",IC50,Ba/F3-KIF5B-RET,< 10 nM
same,IC50,Ba/F3-KIF5B-RET-V804M,< 10 nM
same,IC50,Ba/F3-KIF5B-RET-V804L,< 10 nM
same,Tumor Volume(mm^3) 0 day,Ba/F3-KIF5B-RET cells; 0 day,169.95 mm^3
same,Tumor Volume(mm^3) 2 days,Ba/F3-KIF5B-RET cells; 2 days,157.73 mm^3
same,Tumor Volume(mm^3) 5 days,Ba/F3-KIF5B-RET cells; 5 days,144.57 mm^3
same,Tumor Volume(mm^3) 9 days,Ba/F3-KIF5B-RET cells; 9 days,185.92 mm^3
same,Tumor Volume(mm^3) 12 days,Ba/F3-KIF5B-RET cells; 12 days,204.18 mm^3
same,Tumor Volume(mm^3) 16 days,Ba/F3-KIF5B-RET cells; 16 days,272.83 mm^3
same,Tumor Volume(mm^3) 19 days,Ba/F3-KIF5B-RET cells; 19 days,277.52 mm^3
same,Tumor Volume(mm^3) 22 days,Ba/F3-KIF5B-RET cells; 22 days,292.41 mm^3
